Test results as given in patent US20030162803A1, “Anhydrovinblastine for the treatment of cancer” (priority 1997, published 2003).

Assays:
[1] = Phase I clinical trial, pharmacokinetics (serum, HPLC, 2-compartment model); assay type: in vivo, human patients; design: AUC: unit not given here
Method: AHVB blood serum concentrations were measured at 0, 0.33, 0.67, 1, 1.25, 1.5, 2, 4, 6, 8, 12, 24, 48, and 72 hrs after the start of each infusion. […] The serum extracts were assayed using high pressure liquid chromatography (HPLC) and were fit to a 2-compartment pharmacokinetic model for determination of pharmacokinetic parameters (see Table 5).
There appears to be no significant change in clearance observed between smaller and larger doses (p>0.2 by linear regression). […] Similarly, AUC appeared to increase linearly with dose (r^2=0.82, p<0.05) (FIG. 12).

[2] = Toxicological studies in rats; assay type: in vivo

With `CCC1=C[C@H]2CN(CCc3c([nH]c4ccccc34)[C@@](C(=O)OC)(c3cc4c(cc3OC)N(C)[C@H]3[C@@](O)(C(=O)OC)[C@H](OC(C)=O)[C@]5(CC)C=CCN6CC[C@]43[C@@H]65)C2)C1` [AHVB, 3′,4′-anhydrovinblastine] the T1/2 al ([1]; dose 16.5 mg/m^2, N 5, Median) was 0.20 h, the T1/2 be ([1]; dose 16.5 mg/m^2, N 5, Median) was 21.82 h and the A ([1]; dose 16.5 mg/m^2, N 5, Min) was 263.49 ng/mL. It also gave an AUC ([1]; dose 16.5 mg/m^2, N 5, Min) of 511.26, a B ([1]; dose 16.5 mg/m^2, N 5, Min) of 6.64 ng/mL and a Cmax ([1]; dose 16.5 mg/m^2, N 5, Min) of 96.35 ng/mL. It also gave a T1/2 al ([1]; dose 16.5 mg/m^2, N 5, Min) of 0.13 h, a T1/2 be ([1]; dose 16.5 mg/m^2, N 5, Min) of 8.21 h and an A ([1]; dose 21 mg/m^2, N 3, Max) of 1197.78 ng/mL. It also gave an AUC ([1]; dose 21 mg/m^2, N 3, Max) of 1402.11, a B ([1]; dose 21 mg/m^2, N 3, Max) of 28.54 ng/mL and a Cmax ([1]; dose 21 mg/m^2, N 3, Max) of 340.46 ng/mL. For the same compound, the T1/2 al ([1]; dose 21 mg/m^2, N 3, Max) was 0.39 h, the T1/2 be ([1]; dose 21 mg/m^2, N 3, Max) was 30.50 h and the A ([1]; dose 21 mg/m^2, N 3, Mean) was 774.37 ng/mL. The AUC ([1]; dose 21 mg/m^2, N 3, Mean) was 1094.91, the B ([1]; dose 21 mg/m^2, N 3, Mean) was 25.92 ng/mL and the Cmax ([1]; dose 21 mg/m^2, N 3, Mean) was 257.21 ng/mL. For the same compound, the T1/2 al ([1]; dose 21 mg/m^2, N 3, Mean) was 0.26 h, the T1/2 be ([1]; dose 21 mg/m^2, N 3, Mean) was 22.88 h and the A ([1]; dose 21 mg/m^2, N 3, Median) was 802.43 ng/mL. For the same compound, the AUC ([1]; dose 21 mg/m^2, N 3, Median) was 964.03, the B ([1]; dose 21 mg/m^2, N 3, Median) was 24.72 ng/mL and the Cmax ([1]; dose 21 mg/m^2, N 3, Median) was 252.10 ng/mL. For the same compound, the T1/2 al ([1]; dose 21 mg/m^2, N 3, Median) was 0.20 h, the T1/2 be ([1]; dose 21 mg/m^2, N 3, Median) was 19.15 h and the A ([1]; dose 21 mg/m^2, N 3, Min) was 322.90 ng/mL. The AUC ([1]; dose 21 mg/m^2, N 3, Min) was 918.58, the B ([1]; dose 21 mg/m^2, N 3, Min) was 24.50 ng/mL and the Cmax ([1]; dose 21 mg/m^2, N 3, Min) was 179.07 ng/mL. For the same compound, the T1/2 al ([1]; dose 21 mg/m^2, N 3, Min) was 0.19 h, the T1/2 be ([1]; dose 21 mg/m^2, N 3, Min) was 19.00 h and the A ([1]; dose 25 mg/m^2, N 6, Max) was 1952.78 ng/mL. The AUC ([1]; dose 25 mg/m^2, N 6, Max) was 1202.01, the B ([1]; dose 25 mg/m^2, N 6, Max) was 48.76 ng/mL and the Cmax ([1]; dose 25 mg/m^2, N 6, Max) was 368.79 ng/mL. It also gave a T1/2 al ([1]; dose 25 mg/m^2, N 6, Max) of 0.36 h, a T1/2 be ([1]; dose 25 mg/m^2, N 6, Max) of 16.29 h and an A ([1]; dose 25 mg/m^2, N 6, Mean) of 1122.91 ng/mL. The AUC ([1]; dose 25 mg/m^2, N 6, Mean) was 764.83, the B ([1]; dose 25 mg/m^2, N 6, Mean) was 34.51 ng/mL and the Cmax ([1]; dose 25 mg/m^2, N 6, Mean) was 273.43 ng/mL. It also gave a T1/2 al ([1]; dose 25 mg/m^2, N 6, Mean) of 0.18 h, a T1/2 be ([1]; dose 25 mg/m^2, N 6, Mean) of 10.68 h and an A ([1]; dose 25 mg/m^2, N 6, Median) of 1062.6 ng/mL. It also gave an AUC ([1]; dose 25 mg/m^2, N 6, Median) of 750.85, a B ([1]; dose 25 mg/m^2, N 6, Median) of 35.06 ng/mL and a Cmax ([1]; dose 25 mg/m^2, N 6, Median) of 287.71 ng/mL. The T1/2 al ([1]; dose 25 mg/m^2, N 6, Median) was 0.16 h, the T1/2 be ([1]; dose 25 mg/m^2, N 6, Median) was 10.54 h and the A ([1]; dose 25 mg/m^2, N 6, Min) was 379.79 ng/mL. It also gave an AUC ([1]; dose 25 mg/m^2, N 6, Min) of 436.85, a B ([1]; dose 25 mg/m^2, N 6, Min) of 20.78 ng/mL and a Cmax ([1]; dose 25 mg/m^2, N 6, Min) of 108.52 ng/mL. For the same compound, the T1/2 al ([1]; dose 25 mg/m^2, N 6, Min) was 0.11 h, the T1/2 be ([1]; dose 25 mg/m^2, N 6, Min) was 6.73 h and the A ([1]; dose 30 mg/m^2, N 1, Value) was 3559.02 ng/mL. It also gave an AUC ([1]; dose 30 mg/m^2, N 1, Value) of 1797.92, a B ([1]; dose 30 mg/m^2, N 1, Value) of 36.71 ng/mL and a Cmax ([1]; dose 30 mg/m^2, N 1, Value) of 571.08 ng/mL. The T1/2 al ([1]; dose 30 mg/m^2, N 1, Value) was 0.10 h, the T1/2 be ([1]; dose 30 mg/m^2, N 1, Value) was 23.83 h and the toxicities [2] was “reversible myelosupression and gastrointestinal toxicities”.
